Measured values as given in the supplement of paper PMC8741786.
In brackets after ≈: the same amount, converted by molar mass.

Columns and labels:
Assay in all cases: minimum inhibitory concentration (ETEST)
Neisseria mucosa/macacae = test system: Neisseria mucosa/macacae
Experimental: (§1)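 Oropharyngeal Neisseria isolates from MSM and employees in Belgium were identified to species by MALDI-TOF MS. MICs of azithromycin, ceftriaxone and ciprofloxacin were determined by ETEST on GC agar after 24 h at 36.5 °C and 5-7% CO2, in mg/L. Values beyond the strip range are reported as >256 (azithromycin) or <0.016 (ceftriaxone); isolates that did not grow are NA.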

Neisseria meningitidis = test system: Neisseria meningitidis
Experimental: as §1

Neisseria lactamica = conditions: population: general population, antibiotic use in previous 6 months: No
Experimental: as §1

## CC[C@H]1OC(=O)[C@H](C)[C@@H](O[C@H]2C[C@@](C)(OC)[C@@H](O)[C@H](C)O2)[C@H](C)[C@@H](O[C@@H]2O[C@H](C)C[C@H](N(C)C)[C@H]2O)[C@](C)(O)C[C@@H](C)CN(C)[C@H](C)[C@@H](O)[C@]1(C)O [azithromycin]
Neisseria mucosa/macacae; isolate id (sample isolate): 19041762_2, population: MSM, antibiotic use in previous 6 months: Yes
  minimum inhibitory concentration: 3 µg/mL (≈ 4.01 µM)
Neisseria mucosa/macacae; isolate id (sample isolate): 19051904_1, population: MSM, antibiotic use in previous 6 months: Yes
  minimum inhibitory concentration: 2 µg/mL (≈ 2.67 µM)
Neisseria mucosa/macacae; isolate id (sample isolate): 19052394_2, population: MSM, antibiotic use in previous 6 months: Yes
  minimum inhibitory concentration: 4 µg/mL (≈ 5.34 µM)
Neisseria mucosa/macacae; isolate id (sample isolate): 19062968_1, population: MSM, antibiotic use in previous 6 months: Yes
  minimum inhibitory concentration: 16 µg/mL (≈ 21.4 µM)
Neisseria mucosa/macacae; isolate id (sample isolate): 19081774_2, population: MSM, antibiotic use in previous 6 months: No
  minimum inhibitory concentration: 24 µg/mL (≈ 32 µM)
Neisseria mucosa/macacae; isolate id (sample isolate): 19111422_4, population: MSM, antibiotic use in previous 6 months: No
  minimum inhibitory concentration: 1.5 µg/mL (≈ 2 µM)
Neisseria mucosa/macacae; isolate id (sample isolate): 19111422_7, population: MSM, antibiotic use in previous 6 months: No
  minimum inhibitory concentration: 1 µg/mL (≈ 1.34 µM)
Neisseria mucosa/macacae; isolate id (sample isolate): Co000770_5, population: general population, antibiotic use in previous 6 months: No
  minimum inhibitory concentration: 3 µg/mL (≈ 4.01 µM)
Neisseria mucosa/macacae; isolate id (sample isolate): Co000771_4, population: general population, antibiotic use in previous 6 months: No
  minimum inhibitory concentration: 6 µg/mL (≈ 8.01 µM)
Neisseria mucosa/macacae; isolate id (sample isolate): Co000772_3, population: general population, antibiotic use in previous 6 months: No
  minimum inhibitory concentration: 4 µg/mL (≈ 5.34 µM)
Neisseria mucosa/macacae; isolate id (sample isolate): Co000773_3, population: general population, antibiotic use in previous 6 months: No
  minimum inhibitory concentration: 2 µg/mL (≈ 2.67 µM)
Neisseria mucosa/macacae; isolate id (sample isolate): Co000779_1, population: general population, antibiotic use in previous 6 months: No
  minimum inhibitory concentration: 2 µg/mL (≈ 2.67 µM)
Neisseria mucosa/macacae; isolate id (sample isolate): Co000783_3, population: general population, antibiotic use in previous 6 months: No
  minimum inhibitory concentration: 6 µg/mL (≈ 8.01 µM)
Neisseria mucosa/macacae; isolate id (sample isolate): Co000783_6, population: general population, antibiotic use in previous 6 months: No
  minimum inhibitory concentration: 32 µg/mL (≈ 42.7 µM)
Neisseria mucosa/macacae; isolate id (sample isolate): Co000787_3, population: general population, antibiotic use in previous 6 months: No
  minimum inhibitory concentration: 4 µg/mL (≈ 5.34 µM)
Neisseria mucosa/macacae; isolate id (sample isolate): Co000788_1, population: general population, antibiotic use in previous 6 months: No
  minimum inhibitory concentration: 2 µg/mL (≈ 2.67 µM)
Neisseria mucosa/macacae; isolate id (sample isolate): Co000788_4, population: general population, antibiotic use in previous 6 months: No
  minimum inhibitory concentration: 4 µg/mL (≈ 5.34 µM)
Neisseria meningitidis; isolate id (sample isolate): 19040471_1, population: MSM, antibiotic use in previous 6 months: No
  minimum inhibitory concentration: 0.38 µg/mL (≈ 0.507 µM)
Neisseria meningitidis; isolate id (sample isolate): 19040855_1, population: MSM, antibiotic use in previous 6 months: No
  minimum inhibitory concentration: 0.25 µg/mL (≈ 0.334 µM)
Neisseria meningitidis; isolate id (sample isolate): 19040874_2, population: MSM, antibiotic use in previous 6 months: No
  minimum inhibitory concentration: 2 µg/mL (≈ 2.67 µM)
Neisseria meningitidis; isolate id (sample isolate): 19040900_2, population: MSM, antibiotic use in previous 6 months: No
  minimum inhibitory concentration: 0.75 µg/mL (≈ 1 µM)
Neisseria meningitidis; isolate id (sample isolate): 19042150_2, population: MSM, antibiotic use in previous 6 months: Yes
  minimum inhibitory concentration: 1.5 µg/mL (≈ 2 µM)
Neisseria meningitidis; isolate id (sample isolate): 19042756_3, population: MSM, antibiotic use in previous 6 months: Yes
  minimum inhibitory concentration: 0.38 µg/mL (≈ 0.507 µM)
Neisseria meningitidis; isolate id (sample isolate): 19043201_1, population: MSM, antibiotic use in previous 6 months: No
  minimum inhibitory concentration: 0.75 µg/mL (≈ 1 µM)
Neisseria meningitidis; isolate id (sample isolate): 19043201_2, population: MSM, antibiotic use in previous 6 months: No
  minimum inhibitory concentration: 0.38 µg/mL (≈ 0.507 µM)
Neisseria meningitidis; isolate id (sample isolate): 19043274_1, population: MSM, antibiotic use in previous 6 months: Yes
  minimum inhibitory concentration: 0.5 µg/mL (≈ 0.668 µM)
Neisseria meningitidis; isolate id (sample isolate): 19043274_2, population: MSM, antibiotic use in previous 6 months: Yes
  minimum inhibitory concentration: 0.38 µg/mL (≈ 0.507 µM)
Neisseria meningitidis; isolate id (sample isolate): 19051853_1, population: MSM, antibiotic use in previous 6 months: No
  minimum inhibitory concentration: 0.38 µg/mL (≈ 0.507 µM)
Neisseria meningitidis; isolate id (sample isolate): 19052394_3, population: MSM, antibiotic use in previous 6 months: Yes
  minimum inhibitory concentration: 0.5 µg/mL (≈ 0.668 µM)
Neisseria meningitidis; isolate id (sample isolate): 19052434_1, population: MSM, antibiotic use in previous 6 months: Yes
  minimum inhibitory concentration: 0.75 µg/mL (≈ 1 µM)
Neisseria meningitidis; isolate id (sample isolate): 19060069_1, population: MSM, antibiotic use in previous 6 months: Yes
  minimum inhibitory concentration: 1 µg/mL (≈ 1.34 µM)
Neisseria meningitidis; isolate id (sample isolate): 19060069_2, population: MSM, antibiotic use in previous 6 months: Yes
  minimum inhibitory concentration: 1 µg/mL (≈ 1.34 µM)
Neisseria meningitidis; isolate id (sample isolate): 19060089_2, population: MSM, antibiotic use in previous 6 months: Yes
  minimum inhibitory concentration: 4 µg/mL (≈ 5.34 µM)
Neisseria meningitidis; isolate id (sample isolate): 19061666_1, population: MSM, antibiotic use in previous 6 months: Yes
  minimum inhibitory concentration: 3 µg/mL (≈ 4.01 µM)
Neisseria meningitidis; isolate id (sample isolate): 19062990_1, population: MSM, antibiotic use in previous 6 months: Yes
  minimum inhibitory concentration: 0.5 µg/mL (≈ 0.668 µM)
Neisseria meningitidis; isolate id (sample isolate): 19070019_2, population: MSM, antibiotic use in previous 6 months: No
  minimum inhibitory concentration: 0.38 µg/mL (≈ 0.507 µM)
Neisseria meningitidis; isolate id (sample isolate): 19070019_4, population: MSM, antibiotic use in previous 6 months: No
  minimum inhibitory concentration: 0.38 µg/mL (≈ 0.507 µM)
Neisseria meningitidis; isolate id (sample isolate): 19070047_1, population: MSM, antibiotic use in previous 6 months: No
  minimum inhibitory concentration: 0.5 µg/mL (≈ 0.668 µM)
Neisseria meningitidis; isolate id (sample isolate): 19082621_2, population: MSM, antibiotic use in previous 6 months: No
  minimum inhibitory concentration: 0.5 µg/mL (≈ 0.668 µM)
Neisseria meningitidis; isolate id (sample isolate): 19091461_1, population: MSM, antibiotic use in previous 6 months: No
  minimum inhibitory concentration: 6 µg/mL (≈ 8.01 µM)
Neisseria meningitidis; isolate id (sample isolate): 19091461_2, population: MSM, antibiotic use in previous 6 months: No
  minimum inhibitory concentration: 4 µg/mL (≈ 5.34 µM)
Neisseria meningitidis; isolate id (sample isolate): 19091973_1, population: MSM, antibiotic use in previous 6 months: No
  minimum inhibitory concentration: 0.5 µg/mL (≈ 0.668 µM)
Neisseria meningitidis; isolate id (sample isolate): 19092429_3, population: MSM, antibiotic use in previous 6 months: No
  minimum inhibitory concentration: 0.38 µg/mL (≈ 0.507 µM)
Neisseria meningitidis; isolate id (sample isolate): 19103457_1, population: MSM, antibiotic use in previous 6 months: No
  minimum inhibitory concentration: 0.38 µg/mL (≈ 0.507 µM)
Neisseria meningitidis; isolate id (sample isolate): 19103457_4, population: MSM, antibiotic use in previous 6 months: No
  minimum inhibitory concentration: 0.25 µg/mL (≈ 0.334 µM)
Neisseria meningitidis; isolate id (sample isolate): 19110394_1, population: MSM, antibiotic use in previous 6 months: No
  minimum inhibitory concentration: 0.5 µg/mL (≈ 0.668 µM)
Neisseria meningitidis; isolate id (sample isolate): 19113049_3, population: MSM, antibiotic use in previous 6 months: No
  minimum inhibitory concentration: 0.19 µg/mL (≈ 0.254 µM)
Neisseria meningitidis; isolate id (sample isolate): 19113049_6, population: MSM, antibiotic use in previous 6 months: No
  minimum inhibitory concentration: 0.25 µg/mL (≈ 0.334 µM)
Neisseria meningitidis; isolate id (sample isolate): Co000765_1, population: general population, antibiotic use in previous 6 months: No
  minimum inhibitory concentration: 0.5 µg/mL (≈ 0.668 µM)
Neisseria meningitidis; isolate id (sample isolate): Co000790_1, population: general population, antibiotic use in previous 6 months: No
  minimum inhibitory concentration: 2 µg/mL (≈ 2.67 µM)
Neisseria meningitidis; isolate id (sample isolate): Co000790_3, population: general population, antibiotic use in previous 6 months: No
  minimum inhibitory concentration: 1 µg/mL (≈ 1.34 µM)
Neisseria lactamica; isolate id (sample isolate): Co000761_1
  minimum inhibitory concentration: 2 µg/mL (≈ 2.67 µM)
Neisseria lactamica; isolate id (sample isolate): Co000771_1
  minimum inhibitory concentration: 1 µg/mL (≈ 1.34 µM)
